Assays:
[1] = biological target: T1, phosphorylated ERBB2 (pERBB2) (Homo sapiens, UniProt P04626); assay: Detection of phosphorylated ERBB2 (pERBB2) by ELISA in BT-474 cells; assay type: cell-based; conditions: four hour incubation
T1 construct: endogenous in cells; host or cells: BT-474
Protocol: BT-474 cells were seeded into a 96-well at 2.0*10^4 cells/100 μl/well. Compounds were dissolved and serially diluted in DMSO. The compounds were then were added, mixed, and incubated for four hours at 37° C., 5% CO2. Compounds were added using four-fold dilutions at final concentrations ranging from 10 μM to 0.01 nM. Following the four hour incubation with compounds, cell lysates were prepared. Plates were centrifuged for 5 μmin at 3000 RPM, and supernatant was removed from each well. Cells were washed 3 times by resuspension in 150 μl PBS, followed by centrifugation and removal of the supernatant, as above. 100 μl of cell lysis buffer (Boston BioProducts, cat #BP-115D) supplied with 1× complete ULTRA cocktail inhibitor (Thermo ScientificTM, cat #78443) was then added to the washed cells. Cells were incubated with lysis buffer for 1 hour at 4° C., and then stored at -80° C. Enzyme-linked immunosorbent assays (ELISA) were performed to measure phosphorylated ERBB2 levels. […] The next day, plates were washed with PBS+0.05% Tween20 (PBST). 150 μl of 5% BSA blocking solution was added for 1 hour at room temperature, with shaking. Plates were washed with PBST. Cell lysates were thawed and 100 μl of lysate was added to the ELISA plate. The plates were incubated for 2 hours at room temperature, with shaking. ELISA plates were then washed with PBST and 100 μl of an HRP-labeled detection antibody that binds phosphorylated tyrosine (R&D Systems, cat #841913) was added to each well. Plates were incubated for 1 hour at room temperature, with shaking. Plates were then washed with PBST, and 100 μl TMB substrate solution (R&D Systems, cat #DY999) was added. Plate were incubated in the dark for 20 minutes at room temperature. 50 μl of Stop solution (R&D Systems, cat #DY994) (50 μl) was added to each well and mixed. Optical density at 450 nm was read on an EnSpire plate reader (Perkin Elmer). The remaining kinase activity by calculated using the following formula: % Relative activity=100×([…]). The low and high control values (“LC” and “HC”) were generated from lysate from wells without cells or with cells treated with 0.1% DMSO, respectively.

[2] = biological target: T2, phosphorylated EGFR (pEGFR) (Homo sapiens, UniProt P00533); assay: Detection of phosphorylated EGFR (pEGFR) by AlphaLISA in EGF-stimulated A431 cells; assay type: cell-based; conditions: A431 cells (10% FBS), 4 hours incubation, EGF 30 ng/mL for 10 minutes
T2 construct: performed to measure phosphorylated EGFR levels using A431 cells (10% FBS); endogenous in cells; host or cells: A431
T2 sequence (P00533 25-1210): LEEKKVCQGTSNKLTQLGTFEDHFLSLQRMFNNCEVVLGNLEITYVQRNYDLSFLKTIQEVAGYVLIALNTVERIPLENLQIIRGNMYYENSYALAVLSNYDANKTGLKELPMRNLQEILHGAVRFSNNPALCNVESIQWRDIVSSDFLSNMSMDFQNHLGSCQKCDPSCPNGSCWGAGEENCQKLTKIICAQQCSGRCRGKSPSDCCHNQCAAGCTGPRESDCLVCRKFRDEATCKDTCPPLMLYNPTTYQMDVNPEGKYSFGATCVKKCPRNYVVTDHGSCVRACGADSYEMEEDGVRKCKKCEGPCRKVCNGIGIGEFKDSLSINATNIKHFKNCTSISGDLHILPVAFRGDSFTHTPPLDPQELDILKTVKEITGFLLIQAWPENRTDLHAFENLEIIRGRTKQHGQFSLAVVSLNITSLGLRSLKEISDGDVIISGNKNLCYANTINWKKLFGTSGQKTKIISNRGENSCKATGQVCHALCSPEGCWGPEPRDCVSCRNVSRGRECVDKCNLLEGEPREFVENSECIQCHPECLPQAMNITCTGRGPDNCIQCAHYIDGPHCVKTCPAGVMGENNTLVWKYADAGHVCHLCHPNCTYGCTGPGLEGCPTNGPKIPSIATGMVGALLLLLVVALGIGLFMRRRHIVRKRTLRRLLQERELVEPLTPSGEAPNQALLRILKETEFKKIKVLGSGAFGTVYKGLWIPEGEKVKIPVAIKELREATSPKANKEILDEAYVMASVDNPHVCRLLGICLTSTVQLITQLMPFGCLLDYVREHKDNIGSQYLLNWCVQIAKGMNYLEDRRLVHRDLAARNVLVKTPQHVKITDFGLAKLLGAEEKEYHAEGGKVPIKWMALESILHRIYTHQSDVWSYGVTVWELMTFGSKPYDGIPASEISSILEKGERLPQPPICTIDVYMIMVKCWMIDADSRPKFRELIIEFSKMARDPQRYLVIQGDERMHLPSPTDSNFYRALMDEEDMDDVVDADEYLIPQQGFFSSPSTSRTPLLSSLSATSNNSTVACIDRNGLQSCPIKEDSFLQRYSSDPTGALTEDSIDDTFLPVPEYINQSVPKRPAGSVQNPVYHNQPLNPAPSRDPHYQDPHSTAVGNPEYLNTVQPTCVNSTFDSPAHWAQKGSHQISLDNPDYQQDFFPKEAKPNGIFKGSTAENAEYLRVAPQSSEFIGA
Protocol: Enzyme-linked immunosorbent assays (ELISA) were performed to measure phosphorylated EGFR levels using A431 cells (10% FBS). A431 (1.0*10^4 cells/40 μl/well) cells were seeded in 384 well. Compounds were dissolved in DMSO, serially diluted in DMSO and then were added, mixed, and incubated for 4 hours at 37° C., 5% C02. Following the 4-hours incubation, cells were stimulated for 10 minutes with EGF (Invitrogen, cat #PHG0311) at a final concentration of 30 ng/mL in the incubator. The media was aspirated and cells were lysed in 10 μL lysis buffer with protease and phosphatase inhibitors (PerkinElmer, cat #ALSU-PEGFR-A50K). The plates were placed on a shaker for 5 μminutes and then incubated for 30 min at 4° C. for complete lysis. The lysate was transferred to an Optiplate (Perkin Elmer, cat #6007290).
Acceptor mix (PerkinElmer, cat #ALSU-PEGFR-A50K) was prepared just before use and 5 μL was dispensed to all the wells, followed by a 1.5-2 h incubation at room temperature in dark. The donor mix (PerkinElmer, cat #ALSU-PEGFR-A50K) was prepared under low light conditions prior to use and 5 μl of donor mix was added to all the wells under subdued lighting or green filters. The plates were placed on a shaker for 5 μmin, sealed, and incubated overnight at room temperature in dark. Plates were read on the Envision (PerkinElmer) using standard AlphaLISA settings.
The percentage of inhibition on EGFR phosphorylation was calculated following equation: % Inhibition=100×(LumHC−LumSample)/(LumHC−LumLC). The low and high controls (LC/HC) are generated from lysate from wells with cells treated with DMSO or […] Staurosporine (BioAustralis, cat #BIA-S1086), […]. IC50 values were calculated by fitting the Curve using XLfit (v5.3.1.3), equation 201: Y=Bottom+(Top−Bottom)/(1+10^((Log IC50−X)*HillSlope)).

T1 sequence (P04626 23-1255): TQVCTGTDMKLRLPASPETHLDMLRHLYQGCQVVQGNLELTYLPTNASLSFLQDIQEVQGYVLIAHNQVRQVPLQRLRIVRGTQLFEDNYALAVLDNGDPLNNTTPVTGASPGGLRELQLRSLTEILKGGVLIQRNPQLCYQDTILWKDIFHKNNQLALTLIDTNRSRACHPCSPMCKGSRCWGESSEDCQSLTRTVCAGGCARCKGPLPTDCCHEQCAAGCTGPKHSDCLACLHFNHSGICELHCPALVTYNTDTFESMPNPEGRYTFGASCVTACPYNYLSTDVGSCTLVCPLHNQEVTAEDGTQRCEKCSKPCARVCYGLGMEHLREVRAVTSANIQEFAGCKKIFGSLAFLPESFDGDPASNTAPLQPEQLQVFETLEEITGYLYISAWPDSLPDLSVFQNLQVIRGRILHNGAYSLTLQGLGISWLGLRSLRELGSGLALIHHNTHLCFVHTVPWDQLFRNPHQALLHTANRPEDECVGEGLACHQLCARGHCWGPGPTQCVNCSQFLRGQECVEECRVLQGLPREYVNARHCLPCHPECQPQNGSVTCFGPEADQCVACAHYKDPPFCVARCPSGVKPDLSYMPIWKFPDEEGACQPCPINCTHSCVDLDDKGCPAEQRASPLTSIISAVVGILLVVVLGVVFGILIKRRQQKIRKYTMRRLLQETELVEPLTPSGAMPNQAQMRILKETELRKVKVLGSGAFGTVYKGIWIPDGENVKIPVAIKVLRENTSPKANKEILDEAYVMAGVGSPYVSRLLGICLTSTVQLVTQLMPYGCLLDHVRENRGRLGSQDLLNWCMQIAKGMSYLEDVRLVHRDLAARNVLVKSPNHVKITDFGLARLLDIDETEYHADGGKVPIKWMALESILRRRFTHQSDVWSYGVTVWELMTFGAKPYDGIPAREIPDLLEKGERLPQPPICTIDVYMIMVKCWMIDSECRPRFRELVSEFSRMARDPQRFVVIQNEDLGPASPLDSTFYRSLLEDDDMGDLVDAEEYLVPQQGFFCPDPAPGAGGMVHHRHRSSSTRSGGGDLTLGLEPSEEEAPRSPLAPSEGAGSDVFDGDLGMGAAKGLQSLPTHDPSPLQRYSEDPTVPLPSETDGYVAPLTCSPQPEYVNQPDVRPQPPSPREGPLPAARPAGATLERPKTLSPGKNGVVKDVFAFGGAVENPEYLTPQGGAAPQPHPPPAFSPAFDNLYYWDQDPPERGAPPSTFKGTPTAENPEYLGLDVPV

In the case of `Cc1cc(Nc2ncnc3ccc4c(c23)OC[C@H]2CCCCN42)ccc1Oc1ccn2ncnc2c1` [Compound 86, (R)—N-(4-([1,2,4]triazolo[1,5-a]pyridin-7-yloxy)-3-methylphenyl)-6,6a,7,8,9,10-hexahydropyrido[1′,2′:4,5][1,4]oxazino[2,3-f]quinazolin-4-amine], the IC50 [1] is reported as 40.7 nM and the IC50 [2] is reported as > 10 µM.

With `Cc1cc(Nc2ncnc3cc4c(cc23)N2CCN(C)C[C@@H]2CO4)ccc1Oc1ccn2ncnc2c1` [Compound 60, (R)—N-(4-([1,2,4]triazolo[1,5-a]pyridin-7-yloxy)-3-methylphenyl)-3-methyl-1,2,3,4,4a,5-hexahydropyrazino[1′,2′:4,5][1,4]oxazino[3,2-g]quinazolin-11-amine] the IC50 [1] was 97.2 nM and the IC50 [2] was > 10 µM.

With `Cc1cc(Nc2ncnc3cnc4c(c23)OC[C@H]2COCCN42)ccc1Oc1ccn2ncnc2c1` [Compound 106, (R)—N-(4-([1,2,4]triazolo[1,5-a]pyridin-7-yloxy)-3-methylphenyl)-6a,7,9,10-tetrahydro-6H-[1,4]oxazino[4,3-d]pyrimido[5′,4′:4,5]pyrido[3,2-b][1,4]oxazin-4-amine] the IC50 [1] was 37.1 nM and the IC50 [2] was > 10 µM.

For `Cc1cc(Nc2ncnc3cc4c(nc23)N2CCOC[C@H]2CO4)c(F)cc1Oc1ccn2ncnc2c1` [Compound 103, (S)—N-(4-([1,2,4]triazolo[1,5-a]pyridin-7-yloxy)-2-fluoro-5-methylphenyl)-1,2,4a,5-tetrahydro-4H-[1,4]oxazino[4,3-d]pyrimido[4′,5′:5,6]pyrido[3,2-b][1,4]oxazin-11-amine], the IC50 [1] was 154 nM and the IC50 [2] was > 10 µM.

With `Cc1cc(Nc2ncnc3cc4c(cc23)N2CCNC[C@@H]2CO4)ccc1Oc1ccn2ncnc2c1` [Compound 59, (R)—N-(4-([1,2,4]triazolo[1,5-a]pyridin-7-yloxy)-3-methylphenyl)-1,2,3,4,4a,5-hexahydropyrazino[1′,2′:4,5][1,4]oxazino[3,2-g]quinazolin-11-amine] the IC50 [1] was 91.7 nM and the IC50 [2] was > 10 µM.

`Cc1cc(Nc2ncnc3cc4c(nc23)N2CCCC[C@H]2CO4)ccc1Oc1ccn2ncnc2c1` [Compound 68, (S)—N-(4-([1,2,4]triazolo[1,5-a]pyridin-7-yloxy)-3-methylphenyl)-1,2,3,4,4a,5-hexahydropyrido[1,2-d]pyrimido[4′,5′:5,6]pyrido[3,2-b][1,4]oxazin-11-amine] was tested, and the IC50 [1] was 55.5 nM and the IC50 [2] was > 10 µM.

In the case of `Cc1cc(Nc2ncnc3cc4c(nc23)N2CCC[C@H]2CO4)ccc1Oc1ccn2ncnc2c1` [Compound 69, (S)—N-(4-([1,2,4]triazolo[1,5-a]pyridin-7-yloxy)-3-methylphenyl)-2,3,3a,4-tetrahydro-1H-pyrimido[4′,5′:5,6]pyrido[3,2-b]pyrrolo[1,2-d][1,4]oxazin-10-amine], the IC50 [1] is reported as 99.8 nM and the IC50 [2] is reported as > 10 µM.

In the case of `Cc1cc(Nc2ncnc3ccc4c(c23)OC[C@H]2COCCN42)ccc1Oc1ccc2c(c1)ncn2C` [Compound 108, (R)—N-(3-methyl-4-((1-methyl-1H-benzo[d]imidazol-5-yl)oxy)phenyl)-6a,7,9,10-tetrahydro-6H-[1,4]oxazino[4′,3′:4,5][1,4]oxazino[2,3-f]quinazolin-4-amine], the IC50 [1] is reported as 57.2 nM and the IC50 [2] is reported as 9.52 µM.

With `Cc1c(Oc2ccn3ncnc3c2)ccc(Nc2ncnc3cc4c(nc23)N2CCOC[C@H]2CO4)c1F` [Compound 102, (S)—N-(4-([1,2,4]triazolo[1,5-a]pyridin-7-yloxy)-2-fluoro-3-methylphenyl)-1,2,4a,5-tetrahydro-4H-[1,4]oxazino[4,3-d]pyrimido[4′,5′:5,6]pyrido[3,2-b][1,4]oxazin-11-amine] the IC50 [1] was 257 nM and the IC50 [2] was > 10 µM.

In the case of `Cc1cc(Nc2ncnc3cc4c(cc23)N2CCN(C)C[C@@H]2CO4)ccc1Oc1ccc2c(c1)ncn2C` [Compound 64, (R)-3-methyl-N-(3-methyl-4-((1-methyl-1H-benzo[d]imidazol-5-yl)oxy)phenyl)-1,2,3,4,4a,5-hexahydropyrazino[1′,2′:4,5][1,4]oxazino[3,2-g]quinazolin-11-amine], the IC50 [1] is reported as 223 nM and the IC50 [2] is reported as > 10 µM.

In the case of `Cc1cc(Nc2ncnc3cc4c(c(F)c23)N2CCN(C)C[C@H]2CO4)ccc1Oc1ccn2ncnc2c1` [Compound 66, (S)—N-(4-([1,2,4]triazolo[1,5-a]pyridin-7-yloxy)-3-methylphenyl)-12-fluoro-3-methyl-1,2,3,4,4a,5-hexahydropyrazino[1′,2′:4,5][1,4]oxazino[3,2-g]quinazolin-11-amine], the IC50 [1] is reported as 119 nM and the IC50 [2] is reported as > 10 µM.

With `Cc1cc(Nc2ncnc3cc4c(nc23)N2CCN(C)C[C@@H]2CO4)ccc1Oc1ccc2c(c1)ncn2C` [Compound 40, (R)-3-methyl-N-(3-methyl-4-((1-methyl-1H-benzo[d]imidazol-5-yl)oxy)phenyl)-1,2,3,4,4a,5-hexahydropyrazino[1,2-d]pyrimido[4′,5′:5,6]pyrido[3,2-b][1,4]oxazin-11-amine] the IC50 [1] was 153 nM and the IC50 [2] was > 10 µM.

With `Cc1cc(Nc2ncnc3ccc4c(c23)OC[C@H]2CN(C)CCN42)ccc1Oc1ccc2c(c1)ncn2C` [Compound 46, (R)-8-methyl-N-(3-methyl-4-((1-methyl-1H-benzo[d]imidazol-5-yl)oxy)phenyl)-6,6a,7,8,9,10-hexahydropyrazino[1′,2′:4,5][1,4]oxazino[2,3-f]quinazolin-4-amine] the IC50 [1] was 22.3 nM and the IC50 [2] was > 10 µM.

`Cc1cc(Nc2ncnc3ccc4c(c23)OC[C@@H]2CN(C)CCN42)ccc1Oc1ccn2ncnc2c1` [Compound 44, (S)—N-(4-([1,2,4]triazolo[1,5-a]pyridin-7-yloxy)-3-methylphenyl)-8-methyl-6,6a,7,8,9,10-hexahydropyrazino[1′,2′:4,5][1,4]oxazino[2,3-f]quinazolin-4-amine] was tested, and the IC50 [1] was 218 nM and the IC50 [2] was > 10 µM.

`Cc1cc(Nc2ncnc3cc4c(nc23)N2CCN(C)C[C@@H]2CO4)ccc1Oc1ccn2ncnc2c1` [Compound 36, (R)—N-(4-([1,2,4]triazolo[1,5-a]pyridin-7-yloxy)-3-methylphenyl)-3-methyl-1,2,3,4,4a,5-hexahydropyrazino[1,2-d]pyrimido[4′,5′:5,6]pyrido[3,2-b][1,4]oxazin-11-amine] was tested, and the IC50 [1] was 234 nM and the IC50 [2] was > 10 µM.

For `Cc1cc(Nc2ncnc3ccc4c(c23)OC[C@H]2COCCN42)c(F)cc1Oc1ccn2ncnc2c1` [Compound 100, (R)—N-(4-([1,2,4]triazolo[1,5-a]pyridin-7-yloxy)-2-fluoro-5-methylphenyl)-6a,7,9,10-tetrahydro-6H-[1,4]oxazino[4′,3′:4,5][1,4]oxazino[2,3-f]quinazolin-4-amine], the IC50 [1] was 82.2 nM and the IC50 [2] was > 10 µM.

With `Cc1cc(Nc2ncnc3cc4c(cc23)N2CCN(C)C[C@H]2CO4)ccc1Oc1ccc2c(c1)ncn2C` [Compound 62, (S)-3-methyl-N-(3-methyl-4-((1-methyl-1H-benzo[d]imidazol-5-yl)oxy)phenyl)-1,2,3,4,4a,5-hexahydropyrazino[1′,2′:4,5][1,4]oxazino[3,2-g]quinazolin-11-amine] the IC50 [1] was 38.5 nM and the IC50 [2] was > 10 µM.

For `Cc1c(Oc2ccn3ncnc3c2)ccc(Nc2ncnc3cc4c(nc23)N2CCN(C)C[C@H]2CO4)c1F` [Compound 74, (S)—N-(4-([1,2,4]triazolo[1,5-a]pyridin-7-yloxy)-2-fluoro-3-methylphenyl)-3-methyl-1,2,3,4,4a,5-hexahydropyrazino[1,2-d]pyrimido[4′,5′:5,6]pyrido[3,2-b][1,4]oxazin-11-amine], the IC50 [1] was 98.1 nM and the IC50 [2] was > 10 µM.

Source: patent US20260078135A1, “POLYCYCLIC QUINAZOLINES FOR INHIBITION OF ERBB2” (Enliven Inc., priority 2022, published 2026)
